Data taken from patent US20220280661A1, “GLUCOCORTICOID RECEPTOR RADIOLIGANDS AND METHODS FOR THEIR PREPARATION AND USE” (The Regents of the University of California, priority 2019, published 2022).

Tests used:
[1] = tested on: GR; assay: 18F-YJH08 PET/biodistribution after JG231 treatment; type: in vivo, mouse; conditions: once daily for 3 days via intraperitoneal injection
Protocol: At right is shown a maximum intensity projection of supraspinal BAT and muscle from a representative mouse in either treatment arm. Mice (n=5/treatment arm) were treated with JG231 or vehicle once daily for 3 days via intraperitoneal injection.
The biodistribution data are representative of two independent experiments.
The limitations of broad-spectrum GR modulators like corticosteroids are well known, and the severe side effects associated with their long term use (e.g. diabetes mellitus, osteoporosis) motivated drug development campaigns starting in the 1990s to identify safer GR modulators that selectively modulate GR activity (Sundahl, et al. Pharmacol. Ther. 2015, 152, 28-41). […] To test this concept, the biodistribution of ^18F-YJH08 was evaluated in mice after treatment with JG231 (FIGS. 10A and 10B). […] Using the same treatment strategy, mice were subjected to 4 mg/kg/day for three days intraperitoneally, and subsequently treated with ^18F-YJH08. […] In these regions, it appeared that JG231 suppressed radiotracer binding, perhaps indicative of GR degradation. […] Immunoblot studies corroborated the biodistribution data, showing approximately ˜50% reduction in GR expression levels due to JG231 treatment in brown fat, and no change in GR levels from other tissues, for example, kidneys, liver, and muscle (FIG. 10E). […]

[2] = tested on: GR; assay: Immunoblot of GR in breast cancer cell lines treated with JG231; type: cell-based, human; conditions: 24 hours
Protocol: Cells were treated with the indicated dose for 24 hours.

[3] = tested on: GR; assay: Immunoblot of GR in mouse tissues after JG231 treatment; type: in vivo; conditions: 4 mg/kg/day for three days intraperitoneally
From the text: GR levels were not impacted in liver, kidneys, or muscle, as predicted based on the radiotracer biodistribution data.
The limitations of broad-spectrum GR modulators like corticosteroids are well known, and the severe side effects associated with their long term use (e.g. diabetes mellitus, osteoporosis) motivated drug development campaigns starting in the 1990s to identify safer GR modulators that selectively modulate GR activity (Sundahl, et al. Pharmacol. Ther. 2015, 152, 28-41). […] To test this concept, the biodistribution of ^18F-YJH08 was evaluated in mice after treatment with JG231 (FIGS. 10A and 10B). […] Using the same treatment strategy, mice were subjected to 4 mg/kg/day for three days intraperitoneally, and subsequently treated with ^18F-YJH08. […] In these regions, it appeared that JG231 suppressed radiotracer binding, perhaps indicative of GR degradation. […] Immunoblot studies corroborated the biodistribution data, showing approximately ˜50% reduction in GR expression levels due to JG231 treatment in brown fat, and no change in GR levels from other tissues, for example, kidneys, liver, and muscle (FIG. 10E). This is believed to be the first example of tissue specific GR degradation.

## CCn1c(=O)/c(=C2\Sc3cc(Cl)ccc3N2C)s/c1=C\c1scc[n+]1Cc1ccc(Br)s1.[Cl-] [JG231, 3-((5-bromothiophen-2-yl)methyl)-2-((Z)-((E)-5-(6-chloro-3-methylbenzo[d]thiazol-2(3H)-ylidene)-3-ethyl-4-oxothiazolidin-2-ylidene)methyl)thiazol-3-ium chloride]
[1]
  effect on ^18F-YJH08 tissue uptake: suppressed radiotracer uptake exclusively in the supraspinal brown fat pad
[2]; MCF7 cells
  GR degradation (immunoblot), MCF7: degrades GR
[2]; MDA MB 231 cells
  GR degradation (immunoblot), MDA MB 231: degrades GR
[3]
  GR levels in kidneys, liver, and muscle: no change
  reduction in GR expression levels in brown fat: ~50%
